In ChEMBL document CHEMBL1781889, “A chemometric study of the 5-HT(1A) receptor affinities presented by arylpiperazine compounds” (Eur J Med Chem, 2008):

Each molecule was assayed against T1, 5-hydroxytryptamine receptor 1A (Homo sapiens, UniProt P08908) (assay: Binding affinity to 5HT1A receptor).
T1 sequence (P08908 whole entry): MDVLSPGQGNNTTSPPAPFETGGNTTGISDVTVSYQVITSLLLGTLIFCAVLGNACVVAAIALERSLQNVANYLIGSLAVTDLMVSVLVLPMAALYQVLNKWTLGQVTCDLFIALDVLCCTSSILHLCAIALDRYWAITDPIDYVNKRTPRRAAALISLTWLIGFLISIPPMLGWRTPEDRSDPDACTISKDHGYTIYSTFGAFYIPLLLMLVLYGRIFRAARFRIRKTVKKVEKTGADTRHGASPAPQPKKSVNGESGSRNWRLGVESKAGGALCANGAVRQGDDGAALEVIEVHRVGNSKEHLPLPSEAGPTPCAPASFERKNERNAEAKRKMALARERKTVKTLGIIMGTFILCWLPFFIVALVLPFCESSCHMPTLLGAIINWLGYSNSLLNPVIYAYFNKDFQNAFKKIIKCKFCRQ
Work on `Cc1ccc(OC(CCN2CCN(c3ccc(Cl)cc3)CC2)c2ccccc2)cc1` (stereo unspecified) yielded a Ki of 1450 nM. Work on `COc1ccccc1N1CCN(CCC(=O)c2ccc3ccccc3c2)CC1` yielded a Ki of 251 nM. `Cc1cc(C(=O)CCN2CCN(c3ccccc3O)CC2)c(C)s1` showed a Ki of 7.59 nM. Work on `OC(CCN1CCN(c2ccc(Cl)cc2)CC1)c1cccs1` (stereo unspecified) yielded a Ki of 5010 nM. Work on `COc1ccccc1N1CCN(CC/C(=N\O)c2ccsc2)CC1` yielded a Ki of 6.46 nM. Work on `COc1ccccc1N1CCN(CCC(=O)c2ccsc2)CC1` yielded a Ki of 15.8 nM. In the case of `O=C(CCN1CCN(c2ccccc2O)CC1)c1csc2ccccc12`, the Ki is reported as 110 nM. `O=C(CCN1CCN(c2ccccc2Cl)CC1)c1ccccc1` gave a Ki of 182 nM. With `Cc1cc(C(O)CCN2CCN(c3ccccc3O)CC2)c(C)s1` (stereo unspecified) the Ki was 91.2 nM. For `O=C(CCN1CCN(c2ncccn2)CC1)c1ccccc1`, the Ki was 120 nM. `COc1ccccc1N1CCN(CCC(=O)c2ccc(-c3ccccc3)cc2)CC1` showed a Ki of 3630 nM. For `COc1ccc(N2CCN(CCC(Oc3ccc(C(F)(F)F)cc3)c3ccccc3)CC2)cc1` (stereo unspecified), the Ki was 5010 nM. In the case of `COc1ccccc1N1CCN(CCC(Oc2ccc(C(F)(F)F)cc2)c2ccccc2)CC1` (stereo unspecified), the Ki is reported as 447 nM. Molecule `O=C(CCN1CCN(c2ccc(Cl)cc2)CC1)c1cccs1` has a Ki of 5010 nM. With `OC(CCN1CCN(c2ccccn2)CC1)c1ccccc1` (stereo unspecified) the Ki was 155 nM. Work on `OC(CCN1CCN(c2ccc(Cl)cc2)CC1)c1ccc2ccccc2c1` (stereo unspecified) yielded a Ki of 5010 nM. In the case of `O=C(CCN1CCN(c2ccc(Cl)cc2)CC1)c1ccc2ccccc2c1`, the Ki is reported as 5010 nM. Work on `O=C(CCN1CCN(c2ccccn2)CC1)c1ccccc1` yielded a Ki of 50.1 nM. In the case of `COc1ccc(C(O)CCN2CCN(c3ccccc3OC)CC2)cc1` (stereo unspecified), the Ki is reported as 324 nM. Work on `COc1ccccc1N1CCN(CCC(O)c2ccccc2)CC1` (stereo unspecified) yielded a Ki of 47.9 nM. For `O=C(CCN1CCN(c2cccc3ccccc23)CC1)c1ccsc1`, the Ki was 34.7 nM. For `COc1cc(Cl)ccc1N1CCN(CCC(O)c2csc3ccccc23)CC1` (stereo unspecified), the Ki was 363 nM. `FC(F)(F)c1ccc(OC(CCN2CCN(c3ccccc3Cl)CC2)c2ccccc2)cc1` (stereo unspecified) was tested, and the Ki was 5010 nM. For `OC(CCN1CCN(c2ccccc2Cl)CC1)c1ccccc1` (stereo unspecified), the Ki was 115 nM. For `COc1ccccc1N1CCN(CCC(=O)c2ccc([N+](=O)[O-])s2)CC1`, the Ki was 339 nM. Molecule `Clc1ccc(N2CCN(CCC(Oc3ccc4c(c3)OCO4)c3ccccc3)CC2)cc1` (stereo unspecified) has a Ki of 550 nM. Work on `Fc1ccc(N2CCN(CCC(Oc3ccc(C(F)(F)F)cc3)c3ccccc3)CC2)cc1` (stereo unspecified) yielded a Ki of 5010 nM. `COc1ccccc1N1CCN(CC/C(=N\O)c2ccccc2)CC1` showed a Ki of 17.4 nM. For `OC(CCN1CCN(c2ccccc2Cl)CC1)c1ccsc1` (stereo unspecified), the Ki was 200 nM. For `O=C(CCN1CCN(c2ccccc2Cl)CC1)c1ccsc1`, the Ki was 200 nM. With `COc1cc(F)ccc1N1CCN(CCC(=O)c2csc3ccccc23)CC1` the Ki was 501 nM. Molecule `COc1ccccc1N1CCN(CCC(Oc2ccc(C(F)(F)F)cc2)c2ccsc2)CC1` (stereo unspecified) has a Ki of 257 nM. For `COc1ccccc1N1CCN(CCC(=O)c2cc(C)sc2C)CC1`, the Ki was 5.01 nM. Molecule `COc1ccc(N2CCN(CCC(=O)c3ccccc3)CC2)cc1` has a Ki of 5010 nM. `COc1ccccc1N1CCN(CCC(=O)c2csc3ccccc23)CC1` gave a Ki of 43.7 nM. Molecule `Oc1ccccc1N1CCN(CCC(O)c2csc3ccccc23)CC1` (stereo unspecified) has a Ki of 18.2 nM. `FC(F)(F)c1ccc(OC(CCN2CCN(c3ncccn3)CC2)c2ccccc2)cc1` (stereo unspecified) showed a Ki of 1580 nM. For `COc1ccccc1N1CCN(CCC(O)c2cccs2)CC1` (stereo unspecified), the Ki was 19.1 nM. `COc1ccccc1N1CCN(CCC(Oc2ccc(C(F)(F)F)cc2)c2ccc(-c3ccccc3)cc2)CC1` (stereo unspecified) was tested, and the Ki was 5010 nM. Molecule `O=C(CCN1CCN(c2cccc3ccccc23)CC1)c1csc2ccccc12` has a Ki of 100 nM. In the case of `COc1ccccc1N1CCN(CCC(O)c2csc3ccccc23)CC1` (stereo unspecified), the Ki is reported as 20 nM. In the case of `O=[N+]([O-])c1ccc(N2CCN(CCC(O)c3ccccc3)CC2)cc1` (stereo unspecified), the Ki is reported as 5010 nM. `O=C(CCN1CCN(c2ccc(Cl)cc2)CC1)c1csc2ccccc12` gave a Ki of 5010 nM. For `COc1ccccc1N1CCN(CCC(O)c2ccc3ccccc3c2)CC1` (stereo unspecified), the Ki was 417 nM. `COc1ccccc1N1CCN(CCC(=O)c2ccc(C)s2)CC1` was tested, and the Ki was 17.4 nM. `COc1ccc(N2CCN(CCC(O)c3ccc(-c4ccccc4)cc3)CC2)cc1` (stereo unspecified) gave a Ki of 851 nM. For `COc1ccccc1N1CCN(CCC(O)c2cc(C)sc2C)CC1` (stereo unspecified), the Ki was 12 nM. `O=C(CCN1CCN(c2ccc(F)cc2)CC1)c1ccccc1` showed a Ki of 794 nM. Work on `OC(CCN1CCN(c2ccc(Cl)cc2)CC1)c1ccccc1` (stereo unspecified) yielded a Ki of 794 nM. `COc1ccccc1N1CCN(CCC(O)c2ccc(C)s2)CC1` (stereo unspecified) showed a Ki of 33.9 nM. Work on `COc1ccccc1N1CCN(CCC(=O)c2cccs2)CC1` yielded a Ki of 10 nM. Molecule `OC(CCN1CCN(c2ccc(Cl)cc2)CC1)c1csc2ccccc12` (stereo unspecified) has a Ki of 5010 nM. For `COc1ccccc1N1CCN(CCC(O)c2ccsc2)CC1` (stereo unspecified), the Ki was 50.1 nM. `COc1ccc(C(CCN2CCN(c3ccccc3OC)CC2)Oc2ccc(C(F)(F)F)cc2)cc1` (stereo unspecified) gave a Ki of 1000 nM. In the case of `COc1cc(Cl)ccc1N1CCN(CCC(=O)c2csc3ccccc23)CC1`, the Ki is reported as 501 nM. For `O=C(CCN1CCN(c2ccc([N+](=O)[O-])cc2)CC1)c1ccccc1`, the Ki was 5010 nM. `COc1cc(F)ccc1N1CCN(CCC(O)c2csc3ccccc23)CC1` (stereo unspecified) gave a Ki of 501 nM. For `O=C(CCN1CCN(c2ccc(Cl)cc2)CC1)c1ccccc1`, the Ki was 794 nM. `O=[N+]([O-])c1ccc(N2CCN(CCC(Oc3ccc(C(F)(F)F)cc3)c3ccccc3)CC2)cc1` (stereo unspecified) gave a Ki of 5010 nM. Work on `Cc1cc(C(=O)CCN2CCN(c3cccc4ccccc34)CC2)c(C)s1` yielded a Ki of 100 nM. For `COc1ccc(N2CCN(CCC(O)c3ccccc3)CC2)cc1` (stereo unspecified), the Ki was 5010 nM.
